From patent US20250326732A1 (Pretzel Therapeutics, Inc., priority 2021, published 2025)

biological target: POLRMT (Homo sapiens (Human), UniProt O00411); experiment: homogeneous TR-FRET assay of mitochondrial transcription (inhibition of POLRMT); format: biochemical; details: 7.5 nM POLRMT, 15 nM TFB2M, 30 nM TFAM, 0.5 nM DNA template, 500 μM NTPs, 37° C. for 60 minutes
In short: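 POLRMT transcription from linearized pUC-LSP DNA template; RNA product detected by hybridization of ATTO647 acceptor (1 nM) and biotinylated donor (3 nM) probes plus Europium-streptavidin. Reaction stopped with EDTA/700 mM NaCl buffer, pH 7.5.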

Chain of POLRMT (O00411 42-1230): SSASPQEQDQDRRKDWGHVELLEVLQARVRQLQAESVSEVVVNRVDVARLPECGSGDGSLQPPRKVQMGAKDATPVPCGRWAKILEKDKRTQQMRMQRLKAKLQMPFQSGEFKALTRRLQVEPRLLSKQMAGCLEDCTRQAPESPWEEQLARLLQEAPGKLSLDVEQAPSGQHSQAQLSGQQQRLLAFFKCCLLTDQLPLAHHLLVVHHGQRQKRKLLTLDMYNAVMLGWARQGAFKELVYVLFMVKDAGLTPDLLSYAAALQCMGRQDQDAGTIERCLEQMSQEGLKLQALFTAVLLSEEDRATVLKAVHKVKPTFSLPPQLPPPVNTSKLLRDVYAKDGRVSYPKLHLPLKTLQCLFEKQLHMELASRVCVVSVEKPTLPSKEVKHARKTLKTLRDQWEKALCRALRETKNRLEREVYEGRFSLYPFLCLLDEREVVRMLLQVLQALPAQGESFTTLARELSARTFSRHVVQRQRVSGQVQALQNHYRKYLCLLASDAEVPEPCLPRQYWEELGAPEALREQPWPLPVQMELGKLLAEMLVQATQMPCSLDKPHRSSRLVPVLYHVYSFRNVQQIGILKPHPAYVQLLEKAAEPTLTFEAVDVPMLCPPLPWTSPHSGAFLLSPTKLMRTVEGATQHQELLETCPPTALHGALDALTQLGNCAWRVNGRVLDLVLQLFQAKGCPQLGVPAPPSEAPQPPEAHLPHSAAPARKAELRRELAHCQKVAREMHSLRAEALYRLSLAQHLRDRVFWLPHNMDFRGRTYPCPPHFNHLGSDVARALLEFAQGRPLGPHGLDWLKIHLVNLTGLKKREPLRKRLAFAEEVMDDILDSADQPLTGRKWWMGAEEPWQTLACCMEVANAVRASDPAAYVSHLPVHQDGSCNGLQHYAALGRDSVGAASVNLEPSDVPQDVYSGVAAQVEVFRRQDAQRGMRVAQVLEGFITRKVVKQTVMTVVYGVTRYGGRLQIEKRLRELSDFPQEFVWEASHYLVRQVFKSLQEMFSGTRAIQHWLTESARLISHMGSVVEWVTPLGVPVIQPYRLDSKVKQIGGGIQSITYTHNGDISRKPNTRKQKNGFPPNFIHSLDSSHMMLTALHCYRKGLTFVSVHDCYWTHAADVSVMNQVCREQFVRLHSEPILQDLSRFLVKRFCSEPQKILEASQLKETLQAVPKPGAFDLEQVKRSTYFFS

Compound	IC50 [nM]
Cc1ccccc1-c1cc(=O)oc2cc(N(C)CC(=O)O)ccc12 [Example 76, N-methyl-N-(2-oxo-4-(o-tolyl)-2H-chromen-7-yl)glycine]	200
Cc1ccccc1-c1cc(=O)oc2cc(C(C)N(C)C)ccc12 (stereo not drawn) [Example 78, 7-(1-(dimethylamino)ethyl)-4-(o-tolyl)-2H-chromen-2-one]	44000
Cc1ccccc1-c1cc(=O)oc2cc(NCC(=O)N3CCC[C@H](C(=O)O)C3)ccc12 [Example 79, (S)-1-((2-oxo-4-(o-tolyl)-2H-chromen-7-yl)glycyl)piperidine-3-carboxylic acid]	2000
Cc1ccccc1-c1cc(=O)oc2cc(N[C@H](C)C(=O)N3CCC[C@H](C(=O)O)C3)ccc12 [Example 80, (S)-1-((2-oxo-4-(o-tolyl)-2H-chromen-7-yl)-D-alanyl)piperidine-3-carboxylic acid]	100
CN(CC(=O)O)c1ccc2c(-c3ccccc3)cc(=O)oc2c1 [Example 101, N-methyl-N-(2-oxo-4-phenyl-2H-chromen-7-yl)glycine]	10000
COC[C@H](Nc1ccc2c(-c3ccccc3C)cc(=O)oc2c1)C(=O)O [Example 102, O-methyl-N-(2-oxo-4-(o-tolyl)-2H-chromen-7-yl) serine]	3000
COC[C@@H](Nc1ccc2c(-c3ccccc3C)cc(=O)oc2c1)C(=O)N1CCC[C@H](C(=O)O)C1 [Example 104, (S)-1-(O-methyl-N-(2-oxo-4-(o-tolyl)-2H-chromen-7-yl)-D-seryl)piperidine-3-carboxylic acid]	300
Cc1ccccc1-c1cc(=O)oc2cc(NCc3ccccc3)ccc12 [Example 107, 7-(benzylamino)-4-(o-tolyl)-2H-chromen-2-one]	3000
Cc1ccccc1-c1cc(=O)oc2cc(N(C)[C@H](C)C(=O)O)ccc12 [Example 108, N-methyl-N-(2-oxo-4-(o-tolyl)-2H-chromen-7-yl)-D-alanine]	40
Cc1ccccc1-c1cc(=O)oc2cc(C(=O)N(C)C3CCOCC3)ccc12 [Example 111, N-methyl-2-oxo-N-(tetrahydro-2H-pyran-4-yl)-4-(o-tolyl)-2H-chromene-7-carboxamide]	64000
COCC1CN(C(=O)c2ccc3c(-c4ccccc4C)cc(=O)oc3c2)C1 [Example 115, 7-(3-(methoxymethyl)azetidine-1-carbonyl)-4-(o-tolyl)-2H-chromen-2-one]	18000
COC[C@@H]1CCN(C(=O)c2ccc3c(-c4ccccc4C)cc(=O)oc3c2)C1 [Example 116, (R)-7-(3-(methoxymethyl)pyrrolidine-1-carbonyl)-4-(o-tolyl)-2H-chromen-2-one]	45000
Cc1ccccc1-c1cc(=O)oc2cc(NCc3ccn(C)n3)ccc12 [Example 119, 7-(((1-methyl-1H-pyrazol-3-yl)methyl)amino)-4-(o-tolyl)-2H-chromen-2-one]	2000
Cc1ccccc1-c1cc(=O)oc2cc(C(=O)NCc3nccn3C)ccc12 [Example 122, N-((1-methyl-1H-imidazol-2-yl)methyl)-2-oxo-4-(o-tolyl)-2H-chromene-7-carboxamide]	5000
COC[C@H]1CCN(C(=O)c2ccc3c(-c4ccccc4C)cc(=O)oc3c2)C1 [Example 123, (S)-7-(3-(methoxymethyl)pyrrolidine-1-carbonyl)-4-(o-tolyl)-2H-chromen-2-one]	16000
Cc1ccccc1-c1cc(=O)oc2cc(C(=O)N3CC(C)(CO)C3)ccc12 [Example 124, 7-(3-(hydroxymethyl)-3-methylazetidine-1-carbonyl)-4-(o-tolyl)-2H-chromen-2-one]	3000
Cc1ccccc1-c1cc(=O)oc2cc(N(C)Cc3ccccc3)ccc12 [Example 126, 7-[benzyl(methyl)amino]-4-(o-tolyl) chromen-2-one]	50
Cc1ccccc1-c1cc(=O)oc2cc(NCC(C)(C)C(=O)O)ccc12 [Example 127, 2,2-dimethyl-3-((2-oxo-4-(o-tolyl)-2H-chromen-7-yl)amino)propanoic acid]	200

The remaining molecules from weak to strong by IC50, led by results:

IC50 [nM]	Compound
65000	Cc1ccccc1-c1cc(=O)oc2cc(C(=O)N(C)C3CCCOC3)ccc12 (stereo not drawn) [Example 117, N-methyl-2-oxo-N-(tetrahydro-2H-pyran-3-yl)-4-(o-tolyl)-2H-chromene-7-carboxamide]
36000	Cc1ccccc1-c1cc(=O)oc2cc(C(=O)N(C)Cc3nccn3C)ccc12 [Example 114, N-methyl-N-((1-methyl-1H-imidazol-2-yl)methyl)-2-oxo-4-(o-tolyl)-2H-chromene-7-carboxamide]
27000	Cc1ccccc1-c1cc(=O)oc2cc(C(=O)N(C)CC(N)=O)ccc12 [Example 112, N-(2-amino-2-oxoethyl)-N-methyl-2-oxo-4-(o-tolyl)-2H-chromene-7-carboxamide]
20000	Cc1ccccc1-c1cc(=O)oc2cc(C(C)N)ccc12 (stereo not drawn) [Example 91, 7-(1-aminoethyl)-4-(o-tolyl)-2H-chromen-2-one]
15000	Cc1ccccc1-c1cc(=O)oc2cc(C(=O)N3CC(CO)C3)ccc12 [Example 118, 7-(3-(hydroxymethyl)azetidine-1-carbonyl)-4-(o-tolyl)-2H-chromen-2-one]
12000	Cc1ccccc1-c1cc(=O)oc2cc(C(=O)NCC(N)=O)ccc12 [Example 113, N-(2-amino-2-oxoethyl)-2-oxo-4-(o-tolyl)-2H-chromene-7-carboxamide]
8000	CC(=O)N(C)C1CCN(C(=O)c2ccc3c(-c4ccccc4C)cc(=O)oc3c2)CC1 [Example 110, N-methyl-N-(1-(2-oxo-4-(o-tolyl)-2H-chromene-7-carbonyl)piperidin-4-yl)acetamide]
5000	COC[C@H](Nc1ccc2c(-c3ccccc3C)cc(=O)oc2c1)C(=O)N1CCC[C@H](C(=O)O)C1 [Example 103, (S)-1-(O-methyl-N-(2-oxo-4-(o-tolyl)-2H-chromen-7-yl)-seryl)piperidine-3-carboxylic acid]
5000	CC(=O)NC1CCN(C(=O)c2ccc3c(-c4ccccc4C)cc(=O)oc3c2)CC1 [Example 109, N-(1-(2-oxo-4-(o-tolyl)-2H-chromene-7-carbonyl)piperidin-4-yl)acetamide]
2000	CC(=O)N(C)C(C)c1ccc2c(-c3ccccc3C)cc(=O)oc2c1 (stereo not drawn) [Example 77, N-methyl-N-(1-(2-oxo-4-(o-tolyl)-2H-chromen-7-yl)ethyl)acetamide]
2000	CC(=O)NC(C)c1ccc2c(-c3ccccc3C)cc(=O)oc2c1 (stereo not drawn) [Example 96, N-(1-(2-oxo-4-(o-tolyl)-2H-chromen-7-yl)ethyl)acetamide]
500	CN(CC(=O)O)c1ccc2c(-c3ccc(F)cc3Cl)cc(=O)oc2c1 [Example 105, N-(4-(2-chloro-4-fluorophenyl)-2-oxo-2H-chromen-7-yl)-N-methylglycine]
200	Cc1ccccc1-c1cc(=O)oc2cc(N(C)CC(N)=O)ccc12 [Example 106, 2-(methyl(2-oxo-4-(o-tolyl)-2H-chromen-7-yl)amino)acetamide]
100	Cc1ccccc1-c1cc(=O)oc2cc(N(C)Cc3ccn(C)n3)ccc12 [Example 125, 7-(methyl((1-methyl-1H-pyrazol-3-yl)methyl)amino)-4-(o-tolyl)-2H-chromen-2-one]
30	Cc1ccccc1-c1cc(=O)oc2cc(N(C)CC(C)(C)C(=O)O)ccc12 [Example 128, 2,2-dimethyl-3-(methyl(2-oxo-4-(o-tolyl)-2H-chromen-7-yl)amino)propanoic acid]
